The source of these data is PMC2931804 (Clinical cancer research : an official journal of the …, 2010).

The structures appear in SMILES notation.

In this assay the test system is dihydropyrimidine dehydrogenase (DPD). Description: DPD activity assay in peripheral blood mononuclear cells. It counts as in vivo, human.

Turning to `O=C(CCCCCCC(=O)Nc1ccccc1)NO` [vorinostat, suberoylanilide hydroxamic acid], the “Mean DPD level” value came out at 0.142 nmol/min/mg protein (once-daily MTD arm, four patients, day 2 of cycle 1, baseline 0.189); 0.138 nmol/min/mg protein (once-daily MTD arm, four patients, day 3 of cycle 1, baseline 0.189); 0.126 nmol/min/mg protein (once-daily MTD arm, four patients, day 7 of cycle 1, baseline 0.189); 0.199 nmol/min/mg protein (twice-daily MTD arm, three patients, day 2 of cycle 1, baseline 0.253); 0.138 nmol/min/mg protein (twice-daily MTD arm, three patients, day 3 of cycle 1, baseline 0.253); 0.198 nmol/min/mg protein (twice-daily MTD arm, three patients, day 7 of cycle 1, baseline 0.253). For the same compound, the “Differences in DPD levels over time” value (within once-daily or twice-daily cohorts, one way ANOVA (P > 0.05)) is reported as “not statistically significant”.
